Laboratory results: patent publication US4428943A, “(N-Phosphonacetyl-L-aspartato) (1,2-diaminocyclohexane)platinum(II) or alkali metal salt” (priority 1981, dated 1984)

Assays:
[1] = test system: L1210 leukemia; assay: Survival of mice bearing L1210 leukemia, Pt-268 alone (LD50, optimal dose, therapeutic safety ratio); assay type: in vivo, mice (BDF1)
Protocol: Mice received 10^6 L1210 cells on Day 0 via intraperitoneal route. Pt-268 was given intraperitoneally on Day 1 only in 5% glucose solution.
Mice received 10^6 L1210 cells on Day 0 via intraperitoneal route. Pt-268 was given intraperitoneally on Days 1, 5, and 9 in 5% glucose solution.
The BDF1 mice received 10^6 L1210 leukemia cells by I.P. injection on Day 0 and were divided into groups of 10, including a control group of 40 mice. The treated groups were treated on Day 1 only at different dose levels from 10 mg/kg to 200 mg/kg or treated on Days 1, 5, and 9 at dose levels from 2.5 mg/kg to 50 mg/kg.

[2] = test system: L1210 cells; assay: Combination of Pt-268 with cisplatin in mice bearing L1210 leukemia (FIG. 4); assay type: in vivo, BDF1 mice; settings: 5 mg/kg on Day 3, alone
Protocol: Mice were given an inoculum of 10^6 L1210 cells.
With reference to FIG. 4, BDF1 mice were given an inoculum of 10^6 L1210 cells. On Day 3, one grop received NSC-314926, 5 mg/kg. […] Another group received the two drugs in combination on the same schedule.

[3] = test system: Ehrlich ascites carcinoma; assay: Survival times of BDF1 mice bearing the Ehrlich ascites carcinoma; assay type: in vivo; settings: Day 1 only; for T/C × 100: treated/control survival time
Text: In addition to testing with L1210 leukemia, satisfactory responses against tests by additional animal cancer organisms have been shown as, for example, Ehrlich ascites tumor, melanoma B-16 and Colon 38. Testing was achieved using either the alkali metal (sodium) salt or the free acid.
Mice received an intraperitoneal inoculation of 10^7 tumor cells on Day 0; treatment was by the intraperitoneal route on Day 1 only. NSC-314926 [N-phosphonacetyl-L-aspartato(1,2-diaminocyclohexane)platinum(II)] was dissolved in 5% dextrose solution. There were 10 mice per group.

[4] = Solubility; assay type: physicochemical
Protocol: One ml of each of the following solvents dissolved approximately 2 mg of Pt-268: […]

[5] = Solubility; assay type: physicochemical; remark: listed apart in the source

## N-phosphonacetyl-L-aspartato(1,2-diaminocyclohexane)platinum(II), Na [Pt-268]
[1]; I.P. LD50 / I.P. dose which is 50% of the optimal therapeutic dose
  therapeutic safety ratio (LD50/OptD50): 4.5
[1]; L1210, I.P., Day 1 only, 5% glucose
  optimal therapeutic dose: approximately 80 mg/kg
[1]; L1210, I.P., Days 1, 5, and 9, 5% glucose
  optimal dose: approximately 20 mg/kg
[1]; tumored BDF1 mice (10^6 L1210 cells I.P.)
  LD50: 180 mg/kg
[2]
  effect on median life span, single agent: hardly effective
[3]; 5 mg/kg I.P.
  Survival Time: 16.5 days
  T/C × 100: 123
[3]; 10 mg/kg I.P.
  Survival Time: 18.8 days
  T/C × 100: 140
[3]; 20 mg/kg I.P.
  Survival Time: 24.3 days
  T/C × 100: 181
[3]; 40 mg/kg I.P.
  Survival Time: 25.3 days
  T/C × 100: 189
[3]; 60 mg/kg I.P.
  Survival Time: 28.8 days
  T/C × 100: 215
[3]; 80 mg/kg I.P.
  Survival Time: 29.0 days
  T/C × 100: 216
[3]; 100 mg/kg I.P.
  Survival Time: 31.7 days
  T/C × 100: 237
[4]; CHCl3
  Solubility of a 2-mg sample: very slightly soluble or insoluble
[4]; acetone
  Solubility of a 2-mg sample: very slightly soluble or insoluble
[4]; cyclopentanone
  Solubility of a 2-mg sample: very slightly soluble or insoluble
[4]; dimethylformamide
  Solubility of a 2-mg sample: very slightly soluble or insoluble
[4]; dimethylsulfoxide
  Solubility of a 2-mg sample: very slightly soluble or insoluble
[4]; ethanol
  Solubility of a 2-mg sample: very slightly soluble or insoluble
[4]; heptane
  Solubility of a 2-mg sample: very slightly soluble or insoluble
[4]; t-butanol
  Solubility of a 2-mg sample: very slightly soluble or insoluble
[4]; tetrahydrofuran
  Solubility of a 2-mg sample: very slightly soluble or insoluble
[5]; CH3OH
  Solubility in CH3OH: ~ 0.2 mg/ml
[5]; water
  Solubility in water: ~ 175 mg/ml
